The values below come from ChEMBL document CHEMBL3991601, “The target landscape of clinical kinase drugs” (Science, 2017).

The target in assay [1] is T1, Receptor-type tyrosine-protein kinase FLT3 (Homo sapiens, UniProt P36888).
T1 sequence (P36888 whole entry): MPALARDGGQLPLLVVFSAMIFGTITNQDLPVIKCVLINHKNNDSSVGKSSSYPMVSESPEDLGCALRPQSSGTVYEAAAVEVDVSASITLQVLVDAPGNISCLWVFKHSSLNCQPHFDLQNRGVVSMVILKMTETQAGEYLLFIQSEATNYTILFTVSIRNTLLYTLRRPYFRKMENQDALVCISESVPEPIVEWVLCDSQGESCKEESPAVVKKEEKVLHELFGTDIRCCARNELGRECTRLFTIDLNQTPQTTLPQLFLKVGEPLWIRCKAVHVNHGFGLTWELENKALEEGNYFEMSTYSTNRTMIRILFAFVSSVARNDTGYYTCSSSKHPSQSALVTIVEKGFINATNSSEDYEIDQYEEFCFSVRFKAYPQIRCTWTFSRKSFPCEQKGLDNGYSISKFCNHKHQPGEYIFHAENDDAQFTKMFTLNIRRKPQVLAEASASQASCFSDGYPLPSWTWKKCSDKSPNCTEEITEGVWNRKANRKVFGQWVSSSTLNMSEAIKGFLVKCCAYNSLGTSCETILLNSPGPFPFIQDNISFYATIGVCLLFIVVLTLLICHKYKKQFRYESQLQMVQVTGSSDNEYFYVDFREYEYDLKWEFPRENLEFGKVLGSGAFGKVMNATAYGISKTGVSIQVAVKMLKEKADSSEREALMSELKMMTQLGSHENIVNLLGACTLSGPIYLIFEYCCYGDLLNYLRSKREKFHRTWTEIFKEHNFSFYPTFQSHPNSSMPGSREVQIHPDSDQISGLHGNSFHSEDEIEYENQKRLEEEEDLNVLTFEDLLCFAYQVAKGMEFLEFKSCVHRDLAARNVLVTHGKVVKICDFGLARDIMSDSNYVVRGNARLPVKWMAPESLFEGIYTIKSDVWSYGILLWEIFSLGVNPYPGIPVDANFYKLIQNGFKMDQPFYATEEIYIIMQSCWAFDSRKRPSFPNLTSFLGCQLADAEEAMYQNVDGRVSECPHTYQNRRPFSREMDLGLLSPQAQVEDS

The target in assay [2] is Rho-associated protein kinase 2 (Homo sapiens, UniProt O75116).
For assay [3], the target named is TRAF2 and NCK-interacting protein kinase (Homo sapiens, UniProt Q9UKE5).
Assay [4] has as its target Tyrosine-protein kinase BTK (Homo sapiens, UniProt Q06187).
The target of assay [5] is T2, Non-receptor tyrosine-protein kinase TNK1 (Homo sapiens, UniProt Q13470).
T2 sequence (Q13470 whole entry): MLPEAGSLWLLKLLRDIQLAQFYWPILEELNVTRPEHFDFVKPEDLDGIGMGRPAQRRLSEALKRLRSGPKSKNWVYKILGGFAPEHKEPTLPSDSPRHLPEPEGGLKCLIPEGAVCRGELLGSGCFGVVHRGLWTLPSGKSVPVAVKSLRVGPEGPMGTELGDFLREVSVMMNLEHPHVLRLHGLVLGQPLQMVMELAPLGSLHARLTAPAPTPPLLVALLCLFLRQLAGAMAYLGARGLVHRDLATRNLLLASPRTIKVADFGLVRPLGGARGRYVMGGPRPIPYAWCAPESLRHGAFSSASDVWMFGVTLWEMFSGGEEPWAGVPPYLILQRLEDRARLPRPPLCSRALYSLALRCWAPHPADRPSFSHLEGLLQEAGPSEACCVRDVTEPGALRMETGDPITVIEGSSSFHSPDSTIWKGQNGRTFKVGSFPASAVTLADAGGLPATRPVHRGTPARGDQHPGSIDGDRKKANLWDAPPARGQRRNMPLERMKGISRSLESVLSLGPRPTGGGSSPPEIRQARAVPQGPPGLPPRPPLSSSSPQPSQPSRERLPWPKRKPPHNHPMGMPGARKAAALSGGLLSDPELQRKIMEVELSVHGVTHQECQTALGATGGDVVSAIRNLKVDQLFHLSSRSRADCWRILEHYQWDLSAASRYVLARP

For another assay, the target named is Obg-like ATPase 1 (Homo sapiens, UniProt Q9NTK5).
Assay [6] deals with T3, Serine/threonine-protein kinase TAO3 (Homo sapiens, UniProt Q9H2K8).
T3 sequence (Q9H2K8 whole entry): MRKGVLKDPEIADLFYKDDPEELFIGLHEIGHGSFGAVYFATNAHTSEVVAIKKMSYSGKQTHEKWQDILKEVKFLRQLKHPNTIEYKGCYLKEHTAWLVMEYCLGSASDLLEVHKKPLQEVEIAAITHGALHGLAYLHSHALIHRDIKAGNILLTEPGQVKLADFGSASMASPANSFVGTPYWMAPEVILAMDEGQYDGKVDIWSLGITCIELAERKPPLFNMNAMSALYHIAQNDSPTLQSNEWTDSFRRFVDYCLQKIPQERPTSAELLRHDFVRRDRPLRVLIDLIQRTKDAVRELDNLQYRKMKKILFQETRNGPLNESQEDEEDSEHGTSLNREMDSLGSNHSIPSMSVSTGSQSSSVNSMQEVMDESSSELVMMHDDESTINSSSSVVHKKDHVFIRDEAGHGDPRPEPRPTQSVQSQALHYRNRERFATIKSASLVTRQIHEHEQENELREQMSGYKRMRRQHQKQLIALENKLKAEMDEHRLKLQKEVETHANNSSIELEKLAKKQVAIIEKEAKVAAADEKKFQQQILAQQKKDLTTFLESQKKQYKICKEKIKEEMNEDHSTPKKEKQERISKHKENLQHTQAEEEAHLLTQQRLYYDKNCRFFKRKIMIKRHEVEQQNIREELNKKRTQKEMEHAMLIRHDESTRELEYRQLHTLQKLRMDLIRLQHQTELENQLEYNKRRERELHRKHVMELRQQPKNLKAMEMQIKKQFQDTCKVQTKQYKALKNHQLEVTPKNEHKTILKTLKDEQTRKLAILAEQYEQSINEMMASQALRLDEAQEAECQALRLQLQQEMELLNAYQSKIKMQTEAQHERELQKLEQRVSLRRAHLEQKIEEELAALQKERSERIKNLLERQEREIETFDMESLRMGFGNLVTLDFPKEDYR

Assay [7] addresses DNA topoisomerase 2-alpha (Homo sapiens, UniProt P11388).
The target of assay [8] is Mitogen-activated protein kinase kinase kinase 1 (Homo sapiens, UniProt Q13233).
Assay [9] deals with Serine/threonine-protein kinase SIK2 (Homo sapiens, UniProt Q9H0K1).
Assay [10] has as its target Mitogen-activated protein kinase kinase kinase 4 (Homo sapiens, UniProt Q9Y6R4).

Calls of active or inactive are those of the source. Rule as the data show it, for most assays here: actives have a measured Kd and inactives only a lower limit.
Also: in the data inactive means no Kd found up to 30 µM.

Rho-associated protein kinase 2, sequence (O75116 whole entry): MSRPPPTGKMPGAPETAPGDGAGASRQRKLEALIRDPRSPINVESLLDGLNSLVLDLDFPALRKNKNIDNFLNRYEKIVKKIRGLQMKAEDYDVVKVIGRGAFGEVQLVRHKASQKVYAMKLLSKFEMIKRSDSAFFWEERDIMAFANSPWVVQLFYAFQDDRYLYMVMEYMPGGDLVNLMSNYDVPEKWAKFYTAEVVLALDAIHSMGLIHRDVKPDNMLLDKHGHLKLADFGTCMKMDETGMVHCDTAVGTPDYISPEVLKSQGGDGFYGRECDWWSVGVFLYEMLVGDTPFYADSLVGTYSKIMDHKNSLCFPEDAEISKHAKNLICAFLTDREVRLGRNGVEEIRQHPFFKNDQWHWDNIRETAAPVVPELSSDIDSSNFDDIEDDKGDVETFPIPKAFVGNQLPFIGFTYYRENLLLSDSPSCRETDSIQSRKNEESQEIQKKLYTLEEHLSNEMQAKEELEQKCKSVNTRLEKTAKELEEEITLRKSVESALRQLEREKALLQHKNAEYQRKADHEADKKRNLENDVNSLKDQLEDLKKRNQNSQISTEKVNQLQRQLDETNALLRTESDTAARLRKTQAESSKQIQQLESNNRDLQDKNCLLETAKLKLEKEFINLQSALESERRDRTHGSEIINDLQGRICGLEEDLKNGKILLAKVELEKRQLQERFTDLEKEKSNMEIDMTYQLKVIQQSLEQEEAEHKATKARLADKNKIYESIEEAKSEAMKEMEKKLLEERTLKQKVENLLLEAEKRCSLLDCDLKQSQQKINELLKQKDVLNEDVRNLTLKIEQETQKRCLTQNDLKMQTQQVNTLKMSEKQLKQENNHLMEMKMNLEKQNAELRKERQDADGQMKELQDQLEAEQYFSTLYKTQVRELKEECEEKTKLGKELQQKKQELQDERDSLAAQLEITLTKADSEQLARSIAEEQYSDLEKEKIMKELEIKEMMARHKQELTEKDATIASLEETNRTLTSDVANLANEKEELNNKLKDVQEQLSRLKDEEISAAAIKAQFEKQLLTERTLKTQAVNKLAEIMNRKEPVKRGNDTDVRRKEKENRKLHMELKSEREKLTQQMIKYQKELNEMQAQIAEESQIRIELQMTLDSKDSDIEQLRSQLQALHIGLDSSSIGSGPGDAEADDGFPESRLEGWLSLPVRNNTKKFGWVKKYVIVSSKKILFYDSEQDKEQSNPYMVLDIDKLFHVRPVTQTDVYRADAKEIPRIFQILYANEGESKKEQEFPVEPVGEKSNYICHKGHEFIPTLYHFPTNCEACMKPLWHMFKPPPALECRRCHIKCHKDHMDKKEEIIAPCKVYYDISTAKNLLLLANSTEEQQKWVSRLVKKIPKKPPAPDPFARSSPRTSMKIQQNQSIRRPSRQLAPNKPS
DNA topoisomerase 2-alpha, sequence (P11388 whole entry): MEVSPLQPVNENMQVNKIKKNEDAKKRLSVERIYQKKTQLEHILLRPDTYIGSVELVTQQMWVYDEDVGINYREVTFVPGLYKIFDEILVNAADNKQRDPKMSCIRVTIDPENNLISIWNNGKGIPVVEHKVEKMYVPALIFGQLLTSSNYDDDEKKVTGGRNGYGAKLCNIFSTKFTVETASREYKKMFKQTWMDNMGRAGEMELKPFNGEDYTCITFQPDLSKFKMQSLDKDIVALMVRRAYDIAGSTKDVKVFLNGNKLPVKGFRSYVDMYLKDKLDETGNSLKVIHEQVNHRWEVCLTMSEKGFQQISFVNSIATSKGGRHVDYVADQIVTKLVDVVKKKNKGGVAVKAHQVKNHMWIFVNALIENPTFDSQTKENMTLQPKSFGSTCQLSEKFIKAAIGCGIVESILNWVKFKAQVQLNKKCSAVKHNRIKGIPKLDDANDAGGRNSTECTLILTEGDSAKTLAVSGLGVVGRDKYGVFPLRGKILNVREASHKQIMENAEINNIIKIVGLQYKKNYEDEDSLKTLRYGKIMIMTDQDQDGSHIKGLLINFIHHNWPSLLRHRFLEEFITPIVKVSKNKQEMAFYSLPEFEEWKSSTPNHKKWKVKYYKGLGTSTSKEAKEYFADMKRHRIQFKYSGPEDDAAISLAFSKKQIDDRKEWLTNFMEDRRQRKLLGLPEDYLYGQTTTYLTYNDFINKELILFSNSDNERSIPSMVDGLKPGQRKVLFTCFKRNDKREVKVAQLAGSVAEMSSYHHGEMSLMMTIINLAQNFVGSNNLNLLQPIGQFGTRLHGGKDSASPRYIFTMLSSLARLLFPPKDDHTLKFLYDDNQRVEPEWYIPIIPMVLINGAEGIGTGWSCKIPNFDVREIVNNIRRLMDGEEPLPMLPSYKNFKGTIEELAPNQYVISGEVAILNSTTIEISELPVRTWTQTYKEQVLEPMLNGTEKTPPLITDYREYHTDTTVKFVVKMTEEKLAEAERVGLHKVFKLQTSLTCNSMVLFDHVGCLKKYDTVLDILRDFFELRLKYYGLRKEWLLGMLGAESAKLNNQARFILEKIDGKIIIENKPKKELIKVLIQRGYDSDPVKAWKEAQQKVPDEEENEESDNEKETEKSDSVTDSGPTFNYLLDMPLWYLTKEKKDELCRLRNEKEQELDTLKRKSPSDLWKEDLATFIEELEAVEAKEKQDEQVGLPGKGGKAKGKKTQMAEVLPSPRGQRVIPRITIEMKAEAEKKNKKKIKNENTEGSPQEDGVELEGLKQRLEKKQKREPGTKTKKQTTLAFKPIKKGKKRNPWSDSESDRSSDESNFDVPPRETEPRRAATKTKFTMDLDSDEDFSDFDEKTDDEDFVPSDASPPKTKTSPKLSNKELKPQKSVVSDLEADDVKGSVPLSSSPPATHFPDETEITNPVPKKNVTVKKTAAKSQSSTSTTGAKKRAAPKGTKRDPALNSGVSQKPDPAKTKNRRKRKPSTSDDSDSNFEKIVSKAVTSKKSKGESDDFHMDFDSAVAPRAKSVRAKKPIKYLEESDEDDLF
Tyrosine-protein kinase BTK, sequence (Q06187 whole entry): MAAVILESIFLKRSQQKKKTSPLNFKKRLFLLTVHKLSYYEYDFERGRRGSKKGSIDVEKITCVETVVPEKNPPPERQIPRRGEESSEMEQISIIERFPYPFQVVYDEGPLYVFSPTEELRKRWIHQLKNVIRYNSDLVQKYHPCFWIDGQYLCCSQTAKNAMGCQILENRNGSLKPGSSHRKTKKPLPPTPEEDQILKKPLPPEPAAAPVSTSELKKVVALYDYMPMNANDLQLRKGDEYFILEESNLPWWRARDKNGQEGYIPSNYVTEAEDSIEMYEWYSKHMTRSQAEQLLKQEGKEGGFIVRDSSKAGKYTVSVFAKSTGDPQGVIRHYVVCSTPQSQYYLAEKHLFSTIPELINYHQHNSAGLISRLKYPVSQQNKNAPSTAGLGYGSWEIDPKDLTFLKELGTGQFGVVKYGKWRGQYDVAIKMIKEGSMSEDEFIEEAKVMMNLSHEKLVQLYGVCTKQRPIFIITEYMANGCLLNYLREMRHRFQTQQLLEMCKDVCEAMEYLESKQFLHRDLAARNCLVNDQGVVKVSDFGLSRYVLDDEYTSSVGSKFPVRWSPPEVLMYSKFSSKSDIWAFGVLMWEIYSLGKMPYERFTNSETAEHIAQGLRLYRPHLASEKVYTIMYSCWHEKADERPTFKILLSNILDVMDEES
TRAF2 and NCK-interacting protein kinase, sequence (Q9UKE5 whole entry): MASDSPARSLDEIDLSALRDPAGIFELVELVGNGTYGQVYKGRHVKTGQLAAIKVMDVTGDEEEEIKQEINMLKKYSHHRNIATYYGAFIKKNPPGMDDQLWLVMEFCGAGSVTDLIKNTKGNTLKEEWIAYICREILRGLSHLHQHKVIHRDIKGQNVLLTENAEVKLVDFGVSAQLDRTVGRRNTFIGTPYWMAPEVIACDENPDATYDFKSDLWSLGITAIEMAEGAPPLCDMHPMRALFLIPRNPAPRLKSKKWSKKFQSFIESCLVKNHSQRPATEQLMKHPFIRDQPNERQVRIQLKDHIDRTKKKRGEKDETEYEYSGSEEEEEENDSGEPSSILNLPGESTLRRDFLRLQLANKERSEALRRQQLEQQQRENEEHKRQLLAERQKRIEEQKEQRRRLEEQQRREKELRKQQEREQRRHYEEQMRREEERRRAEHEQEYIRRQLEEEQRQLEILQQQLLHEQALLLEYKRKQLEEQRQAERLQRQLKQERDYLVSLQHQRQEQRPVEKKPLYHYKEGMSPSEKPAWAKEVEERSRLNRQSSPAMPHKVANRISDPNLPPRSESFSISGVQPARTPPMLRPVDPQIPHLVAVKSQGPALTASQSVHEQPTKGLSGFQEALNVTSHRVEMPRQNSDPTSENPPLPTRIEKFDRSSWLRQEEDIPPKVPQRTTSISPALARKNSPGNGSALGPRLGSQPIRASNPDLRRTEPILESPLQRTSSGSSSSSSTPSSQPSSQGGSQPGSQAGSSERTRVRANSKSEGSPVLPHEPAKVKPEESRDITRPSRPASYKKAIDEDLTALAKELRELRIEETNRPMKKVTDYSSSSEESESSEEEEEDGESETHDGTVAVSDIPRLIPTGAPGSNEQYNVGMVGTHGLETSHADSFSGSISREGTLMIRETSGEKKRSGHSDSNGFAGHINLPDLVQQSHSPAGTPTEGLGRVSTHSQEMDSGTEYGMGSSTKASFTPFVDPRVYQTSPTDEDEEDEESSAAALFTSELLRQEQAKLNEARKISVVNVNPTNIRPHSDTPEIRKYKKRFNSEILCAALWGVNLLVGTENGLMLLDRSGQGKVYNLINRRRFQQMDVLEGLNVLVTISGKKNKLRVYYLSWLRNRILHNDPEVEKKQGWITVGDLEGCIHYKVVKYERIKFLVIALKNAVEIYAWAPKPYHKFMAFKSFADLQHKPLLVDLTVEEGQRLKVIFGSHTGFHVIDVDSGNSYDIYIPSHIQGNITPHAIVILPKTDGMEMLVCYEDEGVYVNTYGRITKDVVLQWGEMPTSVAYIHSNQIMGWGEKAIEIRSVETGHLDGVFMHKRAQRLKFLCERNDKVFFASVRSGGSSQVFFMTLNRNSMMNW

Turning to `CCNC(=O)C#Cc1ccc2c(c1)NC(=O)/C2=C(\Nc1ccc(CN(C)C)cc1)c1ccccc1`, the Kd in [1] is 0.148 µM (active); in [2], > 30 µM (inactive); in [3], > 30 µM (inactive); in assay [4] it was 0.588 µM (active); in [5] it was > 30 µM (inactive); on Obg-like ATPase 1, > 30 µM (inactive). Further, the Kd in assay [6] was > 30 µM (inactive); in [7], > 30 µM (inactive); in assay [8], > 30 µM (inactive); in [9], 3.51 µM (active); in assay [10] it was > 30 µM (inactive).

As for `C=CC(=O)N1CCC[C@H](n2c(=O)n(-c3ccc(Oc4ccccc4)cc3)c3c(N)ncnc32)C1`, the Kd in assay [1] is > 30 µM (inactive); in assay [2], > 30 µM (inactive); in assay [3], > 30 µM (inactive); in assay [4], 0.004 µM (active); in assay [5], > 30 µM (inactive); at Obg-like ATPase 1 it was > 30 µM (inactive). In addition, the Kd in [6], in assay [7], in [8], in [9] and in assay [10] was > 30 µM (inactive) throughout.

Turning to `Cc1nc2cc(-c3nn(C(C)C)c4ncnc(N)c34)ccc2o1`, the Kd in [1] was 7.04 µM (active); in assay [2], > 30 µM (inactive); in [3] it was > 30 µM (inactive); in assay [4], > 30 µM (inactive); in assay [5], > 30 µM (inactive); on Obg-like ATPase 1 it was > 30 µM (inactive). In addition, the Kd in [6] is > 30 µM (inactive); in assay [7], > 30 µM (inactive); in assay [8] it was 1.05 µM (active); in [9], > 30 µM (inactive); in [10], > 30 µM (inactive).

For `Cc1nc(NC(=O)N2CCC[C@H]2C(N)=O)sc1-c1ccnc(C(C)(C)C(F)(F)F)c1` [ALPELISIB], the Kd (in assay [1]; in assay [2]; in [3]; in assay [4]; in [5]; on Obg-like ATPase 1) was > 30 µM (inactive) in each case. Further, the Kd in assay [6], in assay [7], in assay [8], in assay [9] and in assay [10] was > 30 µM (inactive) throughout.

On to `Cc1csc(-c2nnc(Nc3ccc(Oc4ncccc4-c4ccnc(N)n4)cc3)c3ccccc23)c1` [AMG-900], for which the Kd (in assay [1]; in [2]; in [3]; in [4]; in assay [5]; at Obg-like ATPase 1) was > 30 µM (inactive) in each case. Also, the Kd was 1.77 µM (active) in assay [6]; > 30 µM (inactive) in assay [7]; > 30 µM (inactive) in assay [8]; > 30 µM (inactive) in assay [9]; > 30 µM (inactive) in [10].

With `C=CC(=O)Nc1cc2c(Nc3ccc(F)c(Cl)c3)ncnc2cc1C#CC(C)(C)N1CCN(C)CC1` [AV-412 FREE BASE], the Kd in assay [1] was > 30 µM (inactive); in [2], > 30 µM (inactive); in assay [3] it was > 30 µM (inactive); in assay [4], 0.345 µM (active); in [5] it was > 30 µM (inactive); at Obg-like ATPase 1 it was > 30 µM (inactive). Moreover, the Kd in assay [6] is > 30 µM (inactive); in [7], > 30 µM (inactive); in [8], 7.96 µM (active); in [9], > 30 µM (inactive); in [10] it was > 30 µM (inactive).

In the case of `COc1cc([C@@H]2c3cc4c(cc3[C@H](O)[C@H]3COC(=O)[C@@H]23)OCO4)cc(OC)c1OC` [AXL-1717], the Kd (in [1]; in [2]; in assay [3]; in [4]; in assay [5]; at Obg-like ATPase 1) was > 30 µM (inactive) each time. The Kd in [6] was > 30 µM (inactive); in assay [7] it was 0.486 µM; in [8], > 30 µM (inactive); in assay [9], > 30 µM (inactive); in [10] it was > 30 µM (inactive).

As for `NC(=O)Nc1cc(-c2cccc(F)c2)sc1C(=O)N[C@H]1CCCNC1` [AZD-7762], the Kd in assay [1] is > 30 µM (inactive); in assay [2], > 30 µM (inactive); in assay [3], 0.094 µM (active); in [4], 3.07 µM (active); in assay [5], > 30 µM (inactive); on Obg-like ATPase 1, > 30 µM (inactive). For the same molecule, the Kd in assay [6] is > 30 µM (inactive); in assay [7] it was > 30 µM (inactive); in [8], > 30 µM (inactive); in [9], 0.007 µM (active); in assay [10], > 30 µM (inactive).

With `Cc1cc(C(=O)NOCCO)c(Nc2ccc(I)cc2F)n(C)c1=O` [AZD-8330], the Kd (in assay [1]; in [2]; in assay [3]; in [4]; in assay [5]; at Obg-like ATPase 1) was > 30 µM (inactive) in each case. Besides, the Kd in [6], in [7], in assay [8], in assay [9] and in [10] was > 30 µM (inactive) in each case.

The term Kd denotes the constant that tells how readily two partners part at equilibrium.
